Laboratory results taken from patent publication US8865911B2, “Compounds and their use as BACE inhibitors” (Astrazeneca AB, priority 2010, dated 2014).
pIC50: −log10 of the molar value.

Legend:
[1] = system: sAPPβ release, SH-SY5Y cells; experiment: sAPPβ release assay; assay type: cell-based; conditions: compounds incubated 17 h, MSD detection
Protocol: Thaw cells and seed at a conc. of around 10000 cells/well in DMEM/F-12 with Glutamax, 10% FCS and 1% non-essential amino acids to a 384-well tissue culture treated plate, 100 μL cell susp/well. […] The cell medium was removed, followed by addition of 30 μL compound diluted in DMEM/F-12 with Glutamax, 10% FCS, 1% non-essential amino acids and 1% PeSt to a final conc. of 1% DMSO. The compounds were incubated with the cells for 17 h (overnight) at 37° C., 5% CO2. Meso Scale Discovery (MSD) plates were used for the detection of sAPPβ release. MSD sAPPβ plates were blocked in 1% BSA in Tris wash buffer (40 μL/well) for 1 h on shake at r.t. and washed 1 time in Tris wash buffer (40 μL/well). 20 μL of medium was transferred to the pre-blocked and washed MSD sAPPβ microplates, and the cell plates were further used in an ATP assay to measure cytotoxicity. The MSD plates were incubated with shaking at r.t. for 2 h and the media discarded. 10 μL detection antibody was added (1 nM) per well followed by incubation with shaking at r.t. for 2 h and then discarded. 40 μL Read Buffer was added per well and the plates were read in a SECTOR Imager.

human β-Secretase [2] = biological target: T1, human β-Secretase (Homo sapiens (Human), UniProt P56817); experiment: Diluted TR-FRET assay; assay type: biochemical; conditions: values marked ^a; 50 times less enzyme, 6.5 h reaction time at r.t. in the dark; read-out: IC50 in TR-FRET assay (IC50 from the diluted FRET assay)
T1 sequence (P56817 22-460): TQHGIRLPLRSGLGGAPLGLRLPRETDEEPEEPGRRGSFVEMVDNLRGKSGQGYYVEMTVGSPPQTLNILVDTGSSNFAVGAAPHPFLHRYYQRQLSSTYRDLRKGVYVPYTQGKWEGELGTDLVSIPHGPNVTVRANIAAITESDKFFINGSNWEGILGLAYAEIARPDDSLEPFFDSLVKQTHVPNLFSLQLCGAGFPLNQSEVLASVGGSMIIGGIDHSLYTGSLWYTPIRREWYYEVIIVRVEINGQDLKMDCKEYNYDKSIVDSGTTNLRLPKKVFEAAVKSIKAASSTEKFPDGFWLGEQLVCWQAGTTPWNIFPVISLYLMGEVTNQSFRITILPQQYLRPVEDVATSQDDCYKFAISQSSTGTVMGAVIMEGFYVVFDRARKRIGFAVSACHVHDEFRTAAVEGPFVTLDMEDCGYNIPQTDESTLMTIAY
Protocol: (§1) The β-secretase enzyme used in the TR-FRET is prepared as follows: The cDNA for the soluble part of the human β-Secretase (AA 1-AA 460) was cloned using the ASP2-Fc10-1-IRES-GFP-neoK mammalian expression vector. The gene was fused to the Fc domain of IgG1 (affinity tag) and stably cloned into HEK 293 cells.
The robotic systems Biomek FX and Velocity 11 were used for all liquid handling and the enzyme and substrate solutions were kept on ice until they were placed in the robotic system. Enzyme (9 μl) was added to the plate then 1 μl of compound in dimethylsulphoxide was added, mixed and pre-incubated for 10 minutes. […] The reaction was stopped with the addition of Stop solution (7 μl, NaAcetate, pH 9). […] The dimethylsulphoxide control, instead of test compound, defined the 100% activity level and 0% activity was defined by wells lacking enzyme (replaced with reaction buffer).

human β-Secretase [3] = biological target: T1, human β-Secretase; experiment: TR-FRET assay; assay type: biochemical; conditions: sBACE-Fc, substrate (Europium)CEVNLDAEFK(Qsy7) 100 nM, pH4.5, 15 minutes at r.t.
Protocol: as §1
The robotic systems Biomek FX and Velocity 11 were used for all liquid handling and the enzyme and substrate solutions were kept on ice until they were placed in the robotic system. Enzyme (9 μl) was added to the plate then 1 μl of compound in dimethylsulphoxide was added, mixed and pre-incubated for 10 minutes. Substrate (10 μl) was then added, mixed and the reaction proceeded for 15 minutes at r.t. The reaction was stopped with the addition of Stop solution (7 μl, NaAcetate, pH 9). […] The dimethylsulphoxide control, instead of test compound, defined the 100% activity level and 0% activity was defined by wells lacking enzyme (replaced with reaction buffer).

Row | SMILES | pIC50 (human β-Secretase [2]) | further results
1 | CC1=NC2(CC(C3CCOC(C)(C)C3)Oc3ccc(-c4cccc(Cl)c4)cc32)N=C1N (racemic) [Example 50 Isomeric mixture 2, 6-(3-Chlorophenyl)-2-(2,2-dimethyltetrahydro-2H-pyran-4-yl)-5′-methylspiro[chroman-4,2′-imidazol]-4′-amine] |  | pIC50 [1]: 7.77
2 | COc1cc(C#N)cc(-c2ccc3c(c2)[C@@]2(N=C(C)C(N)=N2)[C@]2(CC[C@H](OC(F)F)CC2)C3)c1 (racemic) [Example 106, 3-[(1r,4r)-4″-Amino-4-(difluoromethoxy)-5″-methyl-3′H-dispiro[cyclohexane-1,2′-indene-1′,2″-imidazol]-6′-yl]-5-methoxybenzonitrile] | 9.00 | 
3 | CC1=NC2(CC3(CCCOC3)Oc3ccc(-c4cccc(Cl)c4)cc32)N=C1N (single isomer, unassigned) [Example 46a Isomer 1, 6′-(3-Chlorophenyl)-5-methyl-5″,6″-dihydro-4″H-dispiro[imidazole-2,4′-chromene-2′,3″-pyran]-4-amine] |  | pIC50 [1]: 6.38
4 | CC1=NC2(CC3(CCCOC3)Oc3ccc(-c4ccc(F)c(Cl)c4)cc32)N=C1N (single isomer, unassigned) [Example 46b Isomer 1, 6′-(3-Chloro-4-fluorophenyl)-5-methyl-5″,6″-dihydro-4′H-dispiro[imidazole-2,4′-chromene-2′,3″-pyran]-4-amine] |  | pIC50 [1]: 6.37
5 | CCC1=NC2(N=C1N)c1cc(-c3cncc(Cl)c3)ccc1C[C@]21CC[C@@H](OC)CC1 (single isomer, unassigned) [Example 66 Isomer 1, (1r,4r)-6′-(5-chloropyridin-3-yl)-5″-ethyl-4-methoxy-3′H-dispiro[cyclohexane-1,2′-indene-1′,2″-imidazol]-4″-amine] |  | pIC50 ([1]; Homo sapiens, SH-SY5Y, 17 h): 8.80
6 | CC#Cc1cncc(-c2ccc3c(c2)C2(N=C(N)C(CC)=N2)[C@]2(CC[C@H](OC)CC2)C3)c1 (single isomer, unassigned) [Example 68 Isomer 1, (1r,4r)-5″-ethyl-4-methoxy-6′-[5-(prop-1-yn-1-yl)pyridin-3-yl]-3′H-dispiro[cyclohexane-1,2′-indene-1′,2″-imidazol]-4″-amine] |  | pIC50 ([1]; Homo sapiens, SH-SY5Y, 17 h): 9.42
7 | CC#Cc1ccnc(-c2ccc3c(c2)C2(N=C(C)C(N)=N2)[C@]2(CC[C@H](OC)CC2)C3)c1 (stereo partly drawn) [Example 20b, (1r,4r)-4-Methoxy-5″-methyl-6′-[4-(prop-1-yn-1-yl)pyridin-2-yl]-3′H-dispiro[cyclohexane-1,2′-indene-1′,2″-imidazol]-4″-amine] | 8.64 | 
8 | CO[C@H]1CC[C@]2(CC1)Cc1ccc(-c3cncc(F)c3)cc1C21N=C(C)C(N)=N1 (stereo partly drawn) [Example 20f, (1r,4r)-6′-(5-Fluoropyridin-3-yl)-4-methoxy-5″-methyl-3′H-dispiro[cyclohexane-1,2′-indene-1′,2″-imidazol]-4″-amine] | 8.26 | 
9 | CO[C@H]1CC[C@]2(CC1)Cc1ccc(NC(=O)c3ncc(Cl)cc3C)cc1C21N=C(C)C(N)=N1 (stereo partly drawn) [Example 20w, N-[(1r,4r)-4″-Amino-4-methoxy-5″-methyl-3′H-dispiro[cyclohexane-1,2′-indene-1′,2″-imidazol]-6′-yl]-5-chloro-3-methylpyridine-2-carboxamide] | 7.74 | 
10 | CC#Cc1cc(-c2ccc3c(c2)C2(N=C(C)C(N)=N2)[C@]2(CC[C@H](OC)CC2)C3)ccn1 (stereo partly drawn) [Example 20y, (1r,4r)-4-Methoxy-5″-methyl-6′-[2-(prop-1-yn-1-yl)pyridin-4-yl]-3′H-dispiro[cyclohexane-1,2′-indene-1′,2″-imidazol]-4″-amine] | 8.31 | 
11 | CC#Cc1cncc(-c2ccc3c(c2)C2(N=C(C)C(N)=N2)C2(CCC(OC)CC2)O3)c1 (stereo not drawn) [Example 30c] | 8.85 | 
12 | COC1CCC2(CC1)Oc1ccc(-c3cncc(Cl)c3)cc1C21N=C(C)C(N)=N1 (stereo not drawn) [Example 30d, 5′-(5-Chloropyridin-3-yl)-4-methoxy-5′-methyldispiro[cyclohexane-1,2′-[1]benzofuran-3′,2″-imidazol]-4″-amine] | 8.28 | 
13 | CO[C@H]1CC[C@]2(CC1)Cc1ccc(-c3cc(Cl)cnc3C)cc1C21N=C(C)C(N)=N1 (stereo partly drawn) [Example 62, (1r,4r)-6′-(5-Chloro-2-methylpyridin-3-yl)-4-methoxy-5″-methyl-3′H-dispiro[cyclohexane-1,2′-indene-1′,2″-imidazol]-4″-amine] | 7.72 | 
14 | CCC1=NC2(N=C1N)c1cc(-c3cncc(C#N)c3)ccc1C[C@]21CC[C@@H](OC)CC1 (stereo partly drawn) [Example 69, 5-[(1r,4r)-4″-Amino-5″-ethyl-4-methoxy-3′H-dispiro[cyclohexane-1,2′-indene-1′,2″-imidazol]-6′-yl]pyridine-3-carbonitrile] | 7.68 | 
15 | CO[C@H]1CC[C@]2(CC1)Cc1ccc(-c3cc(C)cc(C#N)c3)cc1C21N=C(C)C(N)=N1 (stereo partly drawn) [Example 74, 3-[(1r,4r)-4″-Amino-4-methoxy-5″-methyl-3′H-dispiro[cyclohexane-1,2′-indene-1′,2″-imidazol]-6′-yl]-5-methylbenzonitrile] | 8.59 | 
16 | CO[C@H]1CC[C@]2(CC1)Cc1ccc(-c3cc(C#N)cc(C(F)F)c3)cc1[C@@]21N=C(C)C(N)=N1 [Example 86, 3-[(1r,1′R,4R)-4″-Amino-4-methoxy-5″-methyl-3′H-dispiro[cyclohexane-1,2′-indene-1′,2″-imidazol]-6′-yl]-5-(difluoromethyl)benzonitrile] | 8.82 | 
17 | CO[C@H]1CC[C@]2(CC1)Cc1ccc(-c3ccccc3)cc1[C@@]21N=C(C)C(N)=N1 [Example 90, (1r,1′R,4R)-4-Methoxy-5″-methyl-6′-phenyl-3′H-dispiro[cyclohexane-1,2′-indene-1′,2″-imidazol]-4″-amine] | 7.89 | 
18 | CCc1cc(C#N)cc(-c2ccc3c(c2)C2(N=C(C)C(N)=N2)[C@]2(CC[C@H](OC)CC2)C3)c1 (stereo partly drawn) [Example 95, 3-[(1r,4r)-4″-Amino-4-methoxy-5″-methyl-3′H-dispiro[cyclohexane-1,2′-indene-1′,2″-imidazol]-6′-yl]-5-ethylbenzonitrile] | 8.28 | 
19 | COc1ccc(F)c(-c2ccc3c(c2)[C@@]2(N=C(C)C(N)=N2)[C@]2(CC[C@H](OC)CC2)C3)c1 [Example 98, (1r,1′R,4R)-6′-(2-Fluoro-5-methoxyphenyl)-4-methoxy-5″-methyl-3′H-dispiro[cyclohexane-1,2′-indene-1′,2″-imidazol]-4″-amine] | 8.82 | 
20 | CO[C@H]1CC[C@]2(CC1)Cc1ccc(-c3cc(F)ccc3F)cc1[C@@]21N=C(C)C(N)=N1 [Example 99, (1r,1′R,4R)-6′-(2,5-Difluorophenyl)-4-methoxy-5′-methyl-3′H-dispiro[cyclohexane-1,2′-indene-1′,2″-imidazol]-4″-amine] | 8.41 | 
21 | CC1=NC2(N=C1N)c1cc(-c3cc(Cl)cc(C#N)c3)ccc1C[C@]21CC[C@@H](OC(F)F)CC1 (stereo partly drawn) [Example 108, 3-[(1r,4r)-4″-Amino-4-(difluoromethoxy)-5″-methyl-3′H-dispiro[cyclohexane-1,2′-indene-1′,2″-imidazol]-6′-yl]-5-chlorobenzonitrile] | 8.89 | 
22 | CCO[C@H]1CC[C@]2(CC1)Cc1ccc(-c3cncc(Cl)c3)cc1C21N=C(C)C(N)=N1 (stereo partly drawn) [Example 133, (1r,4r)-6′-(5-chloropyridin-3-yl)-4-ethoxy-5″-methyl-3′H-dispiro[cyclohexane-1,2′-indene-1′,2″-imidazol]-4″-amine] |  | pIC50 (human β-Secretase [3]): 7.60
23 | CCO[C@H]1CC[C@]2(CC1)Cc1ccc(-c3cc(C#N)cc(C(F)F)c3)cc1C21N=C(C)C(N)=N1 (stereo partly drawn) [Example 134, 3-[(1r,4r)-4″-Amino-4-ethoxy-5″-methyl-3′H-dispiro[cyclohexane-1,2′-indene-1′,2″-imidazol]-6′-yl]-5-(difluoromethyl)benzonitrile] |  | pIC50 (human β-Secretase [3]): 7.55
24 | CC#Cc1cncc(-c2ccc3c(c2)C2(N=C(C)C(N)=N2)[C@]2(CC[C@H](OCC)CC2)C3)c1 (stereo partly drawn) [Example 135, (1r,4r)-4-Ethoxy-5″-methyl-6′-[5-(prop-1-yn-1-yl)pyridin-3-yl]-3′H-dispiro[cyclohexane-1,2′-indene-1′,2″-imidazol]-4″-amine] |  | pIC50 (human β-Secretase [3]): 7.66
